Test results reported in the kinase profiling compilation of Christmann-Franck et al. (2016).

How the values were obtained:
Test in all cases: radiometric filter-binding kinase assay, Kinase HotSpot
Conditions in all cases: compound 0.5 µM; ATP 10 µM
LTK (human) = LTK (human) (UniProt P29376)
DMPK (human) = DMPK (human) (UniProt Q09013)
AKT1 (human) = AKT1 (human) (UniProt P31749)
PIM1 (human) = PIM1 (human) (UniProt P11309)
CDK3 CCNE1 (human) = CDK3 CCNE1 (human) (UniProt Q00526+P24864)
MARK4 (human) = MARK4 (human) (UniProt Q96L34)
Sequence of MARK4 (human) (Q96L34 whole entry, looked up): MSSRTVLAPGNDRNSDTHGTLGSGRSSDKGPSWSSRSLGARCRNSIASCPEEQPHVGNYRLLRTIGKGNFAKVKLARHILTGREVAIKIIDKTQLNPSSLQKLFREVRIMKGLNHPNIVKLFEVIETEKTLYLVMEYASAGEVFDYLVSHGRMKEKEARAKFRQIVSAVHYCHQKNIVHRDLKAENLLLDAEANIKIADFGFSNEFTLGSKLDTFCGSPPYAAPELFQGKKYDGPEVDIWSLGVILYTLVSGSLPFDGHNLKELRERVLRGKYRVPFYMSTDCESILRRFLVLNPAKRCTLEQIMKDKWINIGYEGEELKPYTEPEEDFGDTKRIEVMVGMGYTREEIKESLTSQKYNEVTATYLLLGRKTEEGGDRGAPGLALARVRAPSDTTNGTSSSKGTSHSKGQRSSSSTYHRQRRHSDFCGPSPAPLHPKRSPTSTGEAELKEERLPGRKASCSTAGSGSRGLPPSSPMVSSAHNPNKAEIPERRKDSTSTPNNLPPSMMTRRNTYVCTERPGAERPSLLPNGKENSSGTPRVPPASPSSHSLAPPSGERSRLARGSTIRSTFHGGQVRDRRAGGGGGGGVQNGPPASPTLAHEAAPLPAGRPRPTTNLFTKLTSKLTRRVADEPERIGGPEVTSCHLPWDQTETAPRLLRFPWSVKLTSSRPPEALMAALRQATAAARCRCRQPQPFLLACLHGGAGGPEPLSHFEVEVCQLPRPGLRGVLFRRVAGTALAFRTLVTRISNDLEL

Sequence of CDK3 CCNE1 (human) (P24864 whole entry, looked up): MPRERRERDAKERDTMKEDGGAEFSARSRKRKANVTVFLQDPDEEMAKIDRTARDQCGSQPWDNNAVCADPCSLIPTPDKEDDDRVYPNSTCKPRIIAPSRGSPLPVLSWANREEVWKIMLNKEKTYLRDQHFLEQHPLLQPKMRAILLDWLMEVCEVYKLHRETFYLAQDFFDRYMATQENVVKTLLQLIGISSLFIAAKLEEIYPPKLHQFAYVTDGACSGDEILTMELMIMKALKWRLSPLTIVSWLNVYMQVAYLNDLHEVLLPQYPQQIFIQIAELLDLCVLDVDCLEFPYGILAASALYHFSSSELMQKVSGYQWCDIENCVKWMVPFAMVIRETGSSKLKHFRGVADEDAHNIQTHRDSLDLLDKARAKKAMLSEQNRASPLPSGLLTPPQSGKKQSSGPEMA
Sequence of CDK3 CCNE1 (human) (Q00526 whole entry, looked up): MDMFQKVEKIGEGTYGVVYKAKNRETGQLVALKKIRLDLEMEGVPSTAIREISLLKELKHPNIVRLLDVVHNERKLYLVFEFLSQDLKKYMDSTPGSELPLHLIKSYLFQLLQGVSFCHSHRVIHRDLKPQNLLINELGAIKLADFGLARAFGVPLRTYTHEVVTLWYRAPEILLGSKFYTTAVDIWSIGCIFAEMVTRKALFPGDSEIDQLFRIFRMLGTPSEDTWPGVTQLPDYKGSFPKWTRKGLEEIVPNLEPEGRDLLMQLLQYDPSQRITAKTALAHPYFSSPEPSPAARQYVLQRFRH
Sequence of PIM1 (human) (P11309 whole entry, looked up): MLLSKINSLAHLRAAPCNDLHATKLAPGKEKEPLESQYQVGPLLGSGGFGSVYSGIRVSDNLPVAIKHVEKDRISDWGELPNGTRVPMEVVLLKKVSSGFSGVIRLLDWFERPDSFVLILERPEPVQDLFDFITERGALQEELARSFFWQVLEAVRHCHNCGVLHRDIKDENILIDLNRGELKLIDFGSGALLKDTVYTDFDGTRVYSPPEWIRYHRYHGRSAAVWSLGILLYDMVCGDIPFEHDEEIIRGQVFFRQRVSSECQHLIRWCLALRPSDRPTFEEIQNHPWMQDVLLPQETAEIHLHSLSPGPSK
Sequence of AKT1 (human) (P31749 whole entry, looked up): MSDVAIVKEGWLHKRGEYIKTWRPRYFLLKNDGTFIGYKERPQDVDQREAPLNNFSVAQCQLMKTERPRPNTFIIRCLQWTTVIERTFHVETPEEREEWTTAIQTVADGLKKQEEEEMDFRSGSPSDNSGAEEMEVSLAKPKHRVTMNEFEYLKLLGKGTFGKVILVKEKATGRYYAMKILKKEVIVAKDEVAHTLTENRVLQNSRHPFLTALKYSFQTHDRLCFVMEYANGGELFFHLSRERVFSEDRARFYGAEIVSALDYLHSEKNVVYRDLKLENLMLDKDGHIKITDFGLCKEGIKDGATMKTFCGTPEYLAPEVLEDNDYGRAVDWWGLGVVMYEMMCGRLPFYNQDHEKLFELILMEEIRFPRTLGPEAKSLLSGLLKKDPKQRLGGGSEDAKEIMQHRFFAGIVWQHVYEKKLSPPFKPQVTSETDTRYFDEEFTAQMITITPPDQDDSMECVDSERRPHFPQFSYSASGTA
Sequence of DMPK (human) (Q09013 whole entry, looked up): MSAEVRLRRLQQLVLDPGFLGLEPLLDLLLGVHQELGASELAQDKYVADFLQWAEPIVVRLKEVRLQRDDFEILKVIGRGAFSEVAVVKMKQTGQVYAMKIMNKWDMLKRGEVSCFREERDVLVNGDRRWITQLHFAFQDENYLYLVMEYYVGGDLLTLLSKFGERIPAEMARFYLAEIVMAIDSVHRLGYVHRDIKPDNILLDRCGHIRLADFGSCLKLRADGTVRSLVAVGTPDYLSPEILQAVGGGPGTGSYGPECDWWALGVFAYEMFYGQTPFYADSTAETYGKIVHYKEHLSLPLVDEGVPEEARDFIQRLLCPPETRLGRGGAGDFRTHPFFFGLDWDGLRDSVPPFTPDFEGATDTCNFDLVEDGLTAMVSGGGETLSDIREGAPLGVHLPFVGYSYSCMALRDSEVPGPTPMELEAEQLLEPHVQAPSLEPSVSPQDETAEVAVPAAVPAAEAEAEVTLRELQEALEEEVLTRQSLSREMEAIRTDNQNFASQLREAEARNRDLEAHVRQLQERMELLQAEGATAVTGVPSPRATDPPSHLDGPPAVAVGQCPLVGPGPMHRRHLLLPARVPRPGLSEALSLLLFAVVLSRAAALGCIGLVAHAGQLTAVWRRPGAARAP
Sequence of LTK (human) (P29376 whole entry, looked up): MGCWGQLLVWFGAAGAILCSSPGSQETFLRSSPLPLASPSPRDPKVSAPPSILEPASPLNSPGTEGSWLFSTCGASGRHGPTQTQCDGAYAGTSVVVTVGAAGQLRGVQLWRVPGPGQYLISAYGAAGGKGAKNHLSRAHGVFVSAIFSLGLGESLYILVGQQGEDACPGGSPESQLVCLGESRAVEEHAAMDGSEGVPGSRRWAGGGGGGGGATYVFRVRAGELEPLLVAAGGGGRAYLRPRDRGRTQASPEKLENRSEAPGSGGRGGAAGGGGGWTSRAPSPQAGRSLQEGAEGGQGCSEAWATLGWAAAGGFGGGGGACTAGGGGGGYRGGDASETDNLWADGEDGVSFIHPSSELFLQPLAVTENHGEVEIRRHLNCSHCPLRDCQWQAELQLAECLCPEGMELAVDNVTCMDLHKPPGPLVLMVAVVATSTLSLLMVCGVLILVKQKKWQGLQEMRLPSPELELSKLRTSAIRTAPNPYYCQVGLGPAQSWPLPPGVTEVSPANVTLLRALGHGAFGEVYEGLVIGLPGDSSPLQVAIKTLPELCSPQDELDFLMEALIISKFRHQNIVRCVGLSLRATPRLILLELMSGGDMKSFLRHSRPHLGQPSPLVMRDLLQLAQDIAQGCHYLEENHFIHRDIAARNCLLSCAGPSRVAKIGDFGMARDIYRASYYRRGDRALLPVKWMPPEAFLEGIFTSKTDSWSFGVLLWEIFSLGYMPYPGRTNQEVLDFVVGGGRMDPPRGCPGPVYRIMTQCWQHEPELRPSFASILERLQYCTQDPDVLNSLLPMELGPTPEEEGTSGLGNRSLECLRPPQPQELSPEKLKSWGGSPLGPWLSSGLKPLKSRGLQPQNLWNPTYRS

`CN[C@@H]1C[C@H]2O[C@@](C)([C@@H]1OC)n1c3ccccc3c3c4c(c5c6ccccc6n2c5c31)C(=O)NC4` gave a residual activity (LTK (human)) of 0.543%, a residual activity (DMPK (human)) of 4.83% and a residual activity (AKT1 (human)) of 7.49%. For the same molecule, the residual activity (PIM1 (human)) was 1.47%, the residual activity (CDK3 CCNE1 (human)) was 8.24% and the residual activity (MARK4 (human)) was -0.0069%.
